In US7855076B2, “Use of discoidin domain receptor 1 (DDR1) and agents that affect the DDR1/collagen pathway” (The United States of America as represented by the …, priority 2002, dated 2010):

What was measured:
Type in all cases: cell-based, human
[1] = tested on: monocyte-derived dendritic cells; experiment: Flow cytometry of CD80, CD83, CD86, HLA-DR on monocyte-derived DCs
Method: Human PBMC were isolated from leukapheresis preparations obtained by the Blood Bank, Clinical Center, National Institutes of Health (Bethesda, Md.). The leukocyte-rich preparation was overlaid on Accu-prep in 50 ml tubes and the tubes were centrifuged at 800×g for 20 min at room temperature. PBMC fractions were collected, washed once with PBS at room temperature and twice with complete medium at 4° C. and resuspended in the same medium. Monocytes were further purified by using iso-osmotic Percoll gradient. At this stage, the purity of monocytes was higher than 90%. The cells (5×10^5/ml) were allowed to adhere to the surface of 6-well plates. After a 5 hour incubation at 37° C., non-adherent cells were removed, and remaining adherent cells were subjected to the DC (Baggiolini et al., Adv. Immunol. 55:97-179, 1993). Over 95% of the adherent cells were positive for CD14 by flow cytometry analysis. Monocytes were briefly resuspended at a concentration of 1×10^6 cells/ml and cultured in complete medium containing 50 ng/ml GM-CSF and 50 ng/ml IL-4. Cells were cultured for 7 days, with cytokine added every second day, to obtain a population of immature monocyte-derived dendritic cells (DC). For maturation, immature DC (iDC) were treated with TNF-α (50 ng/ml) from day 5 to day 7. Mouse monoclonal anti-DDR1 antibody (513) (5 μg/ml) was used to specifically activate DDR1. Unrelated mouse monoclonal IgM was used as a control.
Monocytes were plated at a density of 5×10^6 cell/ml and incubated for 5 days in the presence of 50 ng/ml GM-CSF and 50 ng/ml IL-4. Cells were cultured for 7 days, with cytokine added every second day, to obtain a population of immature monocyte-derived DCs. For maturation, iDCs were incubated with TNF-α (50 ng/ml) from day 5 to day 7. For activation of DDR1 on DCs, the cells were incubated in the presence of either agonistic anti-DDR1 IgM (513) or control IgM, and the expression of CD80, CD83, CD86, and HLA-DR was measured using a flow cytometer.
A hundred thousand cells were resuspended in 50 μl of cold PBS containing 0.1% sodium azide, […] bovine serum albumin (BSA) and 200 μg/ml of human IgG, and then incubated for 10 minutes on ice. Subsequently, the cells were incubated with antibodies against CD80, CD83, CD86 or HLA-DR for 15 minutes on ice, and followed by washing with PBS. After washing, cells were incubated with FITC-conjugated goat anti-mouse IgG for 15 minutes on ice. At the end of the incubation, PI was added to 100 μM. Cells were washed by PBS, and subsequently analyzed on a FACscan (Becton Dickinson). Dead cells, determined by their PI-staining, were gated out. Results were processed using CellQuest software (Becton Dickinson). For the experiments of p38 MAP kinase inhibition, iDC were pre-treated with SB203580, or DMSO for 30 minutes, and then cultured with TNF-α alone, TNF-α plus 513 agonistic anti-DDR1 IgM (5 μg/ml), or TNF-α plus control IgM (5 μg/ml). These experiments were repeated with cells from three different donors.

NF-κB = NF-κB luciferase reporter assay in THP-1 cells; conditions: DDR1b-overexpressing cells
Method: For the results shown in FIG. 7A, mock-transduced or DDR1b-overexpressing THP-1 cells were transfected with 10 μg of the NF-κB-Luc plasmid and 5 μg of pSV-β-galactosidese plasmid DNA (Promega, Madison, Wis.) per 100-mm tissue culture plate using Effectene Transfection Reagent (Qiagen, Valencia, Calif.), according to the manufacture's protocol. After a 12-hour incubation, cells were rinsed with phosphate buffered saline (PBS) and then incubated with 10 nM PMA on collagen-coated plates in the presence of absence of SB203580, PD98059, CAPE or dimethlysulfoxide (DMSO) for another 12 hours. Cells were collected and lysed using the Reporter Lysis Buffer (Promega, Madison, Wis.), and luciferase activity and β-galactosidase activities were measured according to the protocol provided by the manufacturer. The resulting luciferase activity was corrected based on the β-galactosidase activity in the same cell extract. For the results shown in FIG. 7B, DDR1b-overexpressing THP-1 cells were transfected with 10 μg of the pGLM-ENH, or pGLM-MA1MA2 (Ueda et al., J. Bio. Chem. 272: 31092-9, 1997) and 5 μg of pSV-β-galactosidese plasmid DNA (Promega, Madison, Wis.) per 100-mm tissue culture plate using Effectene Transfection Reagent (Qiagen, Valencia, Calif.) according to the manufacture's protocol. […] Cells were collected and lysed using the Reporter Lysis Buffer (Promega, Madison, Wis.), and luciferase activity and β-galactosidase activities were measured according to the protocol provided by the manufacturer. […]
Mock-transduced or DDR1b-overexpressing THP-1 cells were transfected with 10 μg of the NF-κB-Luc plasmid, pGL-ENH, or pGL-MA1MA2 and 5 μg of pSV-β-galactosidase plasmid DNA (Promega, Madison, Wis.) per 100-mm tissue culture plate using Effectene Transfection Reagent (Qiagen, Valencia, Calif.) according to the manufacture's protocol. […] Luciferase activity and β-galactosidase activities were measured according to the protocol provided by the manufacturer. […]

DDR1 = experiment: Cell-surface DDR1 expression on PMN by flow cytometry
Method: PMN were incubated in presence of IFN-γ or GM-CSF for 24 hours and the expression of cell-surface DDR1 was measured by flow cytometry using an antibody raised against the extracellular domain of the receptor. One hundred thousand cells were suspended in 50 μl of cold PBS containing 0.1% NaN3, […] BSA and 200 μg/ml human IgG in a Falcon 2052, tube, and incubated for 10 minutes on ice. One μg of anti-DDR1 rabbit polyclonal antibody raised aginst the N-terminus of DDR1 (Transgenic, Inc., Kumamoto, Japan), or control mouse IgG was added to each tube and the cells were incubated for another 15 minutes on ice. The cells were washed with PBS, and then incubated with 1 μg of FITC-conjugated goat anti-mouse IgG for 15 minutes on ice. At the end of incubation, PI was added to each tube (100 μM). The cells were washed by PBS, and subsequently analyzed by using a FACS scan (Becton Dickinson). Dead cells, determined by the incorporation of PI, were gated out. Results were processed by using the Cellquest software (Becton Dickinson).

[2] = iDC pre-treated, TNF-α-induced maturation with agonistic anti-DDR1 IgM or control IgM
[3] = DC maturation induced with TNF-α 50 ng/ml

C[S+]([O-])c1ccc(-c2nc(-c3ccncc3)c(-c3ccc(F)cc3)[nH]2)cc1 (centres unmarked) [SB203580]
expression of CD80 [1, 2]: almost completely inhibited | expression of CD83 [1, 2]: almost completely inhibited | expression of CD86 [1, 2]: almost completely inhibited | expression of HLA-DR [1, 2]: almost completely inhibited | increase in luciferase activity induced by PMA plus collagen (NF-κB; 12 hours): dose-dependently inhibited

TNF-α
expression of CD80 [1, 3]: up-regulated | expression of CD83 [1, 3]: up-regulated | expression of CD86 [1, 3]: up-regulated | expression of HLA-DR [1, 3]: up-regulated | IFNγ-induced DDR1 expression (DDR1): almost completely inhibited

collagen
luciferase activity (NF-κB; PMA plus collagen, NF-κB-Luc plasmid): markedly increased
